Reference: patent publication US20240065988A1, “COMBINED USE OF KETAMINE AND RETIGABINE (EZOGABINE) FOR THE TREATMENT OF PSYCHIATRIC DISORDERS” (Yeda Research and Development Co. Ltd., priority 2021, published 2024)

Test system: single cells from the ventral hippocampus (vHipp)
Assay: Single-cell RNA sequencing (scRNA-seq) of the ventral hippocampus after ketamine treatment; differential expression per cell type
Conditions: for Mean-Ket / logFC / Change: Glut Neurons
[1] = Microglia, ketamine 10 mg/kg i.p. vs saline
[2] = OPCs, ketamine 10 mg/kg i.p. vs saline
[3] = Oligodendrocytes, ketamine 10 mg/kg i.p.
[4] = Oligodendrocytes, ketamine 10 mg/kg i.p. vs saline

Compound: CNC1(c2ccccc2Cl)CCCCC1=O (racemic) [ketamine, (R,S)-ketamine]
- Mean-Ket (Lsm8): 1.062
- logFC (Lsm8): −0.125
- Change (Map1lc3b): Down
- Mean-Ket (Map1lc3b): 1.349
- logFC (Map1lc3b): −0.132
- Change (Map4): Down
- Mean-Ket (Map4): 2.794
- logFC (Map4): −0.101
- Change (Matr3): Down
- Mean-Ket (Matr3): 1.685
- logFC (Matr3): −0.160
- Eef1akmt3 Mean-Ket (Microglia, ketamine 10 mg/kg i.p.): 1.718
- Eef1akmt3 Change [1]: Up
- Eef1akmt3 logFC [1]: 0.394
- Change (Mmachc): Down
- Mean-Ket (Mmachc): 2.750
- logFC (Mmachc): −0.102
- Change (Mrpl48): Up
- Mean-Ket (Mrpl48): 1.060
- logFC (Mrpl48): 0.180
- Change (Mtg2): Down
- Mean-Ket (Mtg2): 2.635
- logFC (Mtg2): −0.091
- Change (Ndufc1): Down
- Mean-Ket (Ndufc1): 1.039
- logFC (Ndufc1): −0.150
- Change (Nedd4): Down
- Mean-Ket (Nedd4): 1.358
- logFC (Nedd4): −0.161
- Change (Nop58): Down
- Mean-Ket (Nop58): 2.645
- logFC (Nop58): −0.096
- Change (Nvl): Up
- Mean-Ket (Nvl): 1.070
- logFC (Nvl): 0.148
- genes differentially expressed exclusively in one cell type (OPCs): 3
- Akap5 Mean-Ket (OPCs, ketamine 10 mg/kg i.p.): 3.963
- Eef1akmt3 Mean-Ket (OPCs, ketamine 10 mg/kg i.p.): 1.870
- Ilf2 Mean-Ket (OPCs, ketamine 10 mg/kg i.p.): 1.310
- Lrrc17 Mean-Ket (OPCs, ketamine 10 mg/kg i.p.): 3.227
- Mfsd4a Mean-Ket (OPCs, ketamine 10 mg/kg i.p.): 0.916
- Saa3 Mean-Ket (OPCs, ketamine 10 mg/kg i.p.): 1.654
- Tmem181b-ps Mean-Ket (OPCs, ketamine 10 mg/kg i.p.): 0.055
- Tmem1311 Mean-Ket (OPCs, ketamine 10 mg/kg i.p.): 0.804
- Tmprss11a Mean-Ket (OPCs, ketamine 10 mg/kg i.p.): 0.015
- Akap5 Change [2]: Down
- Akap5 logFC [2]: −0.320
- Eef1akmt3 Change [2]: Up
- Eef1akmt3 logFC [2]: 0.527
- Ilf2 Change [2]: Up
- Ilf2 logFC [2]: 0.398
- Lrrc17 Change [2]: Down
- Lrrc17 logFC [2]: −0.286
- Mfsd4a Change [2]: Up
- Mfsd4a logFC [2]: 0.460
- Saa3 Change [2]: Up
- Saa3 logFC [2]: 0.404
- Tmem181b-ps Change [2]: Down
- Tmem181b-ps logFC [2]: −0.195
- Tmem1311 Change [2]: Up
- Tmem1311 logFC [2]: 0.585
- Tmprss11a Change [2]: Down
- Tmprss11a logFC [2]: −0.121
- Change (Oaz1): Down
- Mean-Ket (Oaz1): 1.200
- logFC (Oaz1): −0.205
- Akap5 Mean-Ket [3]: 3.517
- Eef1akmt3 Mean-Ket [3]: 2.089
- Gsn Mean-Ket [3]: 1.005
- Ilf2 Mean-Ket [3]: 1.493
- Jpt2 Mean-Ket [3]: 1.507
- Lrrc17 Mean-Ket [3]: 2.805
- Map3k20 Mean-Ket [3]: 2.351
- Mfsd4a Mean-Ket [3]: 1.058
- Mmachc Mean-Ket [3]: 3.286
- Pias4 Mean-Ket [3]: 1.649
- Ppp1r7 Mean-Ket [3]: 1.026
- Psmb11 Mean-Ket [3]: 1.161
- Saa3 Mean-Ket [3]: 1.909
- Sec14l1 Mean-Ket [3]: 1.281
- Slc10a7 Mean-Ket [3]: 1.538
- Snhg11 Mean-Ket [3]: 2.917
- Supt7l Mean-Ket [3]: 2.509
- Them4 Mean-Ket [3]: 1.517
- Tulp1 Mean-Ket [3]: 1.893
- Upf3b Mean-Ket [3]: 3.197
- Vps8 Mean-Ket [3]: 1.703
- Xcr1 Mean-Ket [3]: 1.078
- Zfp229 Mean-Ket [3]: 1.093
- Zfp827 Mean-Ket [3]: 1.284
- Akap5 Change [4]: Down
- Akap5 logFC [4]: −0.393
- Eef1akmt3 Change [4]: Up
- Eef1akmt3 logFC [4]: 0.601
- Gsn Change [4]: Up
- Gsn logFC [4]: 0.254
- Ilf2 Change [4]: Up
- Ilf2 logFC [4]: 0.463
- Jpt2 Change [4]: Up
- Jpt2 logFC [4]: 0.265
- Lrrc17 Change [4]: Down
- Lrrc17 logFC [4]: −0.365
- Map3k20 Change [4]: Up
- Map3k20 logFC [4]: 0.245
- Mfsd4a Change [4]: Up
- Mfsd4a logFC [4]: 0.642
- Mmachc Change [4]: Up
- Mmachc logFC [4]: 0.154
- Pias4 Change [4]: Up
- Pias4 logFC [4]: 0.209
- Ppp1r7 Change [4]: Up
- Ppp1r7 logFC [4]: 0.231
- Psmb11 Change [4]: Up
- Psmb11 logFC [4]: 0.191
- Saa3 Change [4]: Up
- Saa3 logFC [4]: 0.574
- Sec14l1 Change [4]: Up
- Sec14l1 logFC [4]: 0.238
- Slc10a7 Change [4]: Up
- Slc10a7 logFC [4]: 0.192
- Snhg11 Change [4]: Up
- Snhg11 logFC [4]: 0.164
- Supt7l Change [4]: Up
- Supt7l logFC [4]: 0.169
- Them4 Change [4]: Up
- Them4 logFC [4]: 0.233
- Tulp1 Change [4]: Up
- Tulp1 logFC [4]: 0.207
- Upf3b Change [4]: Up
- Upf3b logFC [4]: 0.166
- Vps8 Change [4]: Down
- Vps8 logFC [4]: −0.217
- Xcr1 Change [4]: Up
- Xcr1 logFC [4]: 0.197
- Zfp229 Change [4]: Up
- Zfp229 logFC [4]: 0.199
